# Where a SMILES comes first, the peptide text is derived from it. The star is where a group is joined. X1 = NC(=O)C12CC3CC(CC(N*)(C3)C1)C2
# Key:
# [1] = test system: STAT3 phosphorylation at Tyr705; experiment: Western blot of pSTAT3 (Tyr705) in hippocampus of 3-week-old offspring (placental/lactational and BBB delivery); type: in vivo, WT and Ts65Dn mice; details: inferred from reduced hippocampal pSTAT3 in 3-week-old offspring; 200 nmoles/g diet to dams E8-PND21
# Description: The studies regarding the plasma stability and stability in gastric and intestinal juices of P021 were done at EVER NeuroPharma GmbH, Unterach, Austria[67]. Briefly, the compound P021 was found stable both in artificial gastric juice (>90%) and in artificial intestinal juice (>95%) as analyzed up to 30 min and 2 hours, respectively. […] It is also worth mentioning that young mice may have consumed some P021 diet directly as young mice start consuming solid food by ~PND16.
# After completion of behavioral testing, the 3-week-old mice from the neurobehavioral development study and the ~7-month-old mice from the longitudinal study were anesthetized with an overdose of sodium pentobarbital (125 mg/kg) and were transcardially perfused with 0.1 M phosphate buffered saline (PBS). The mouse brains were extracted immediately after perfusion. The left hemisphere of the brain was dissected into hippocampus, cerebral cortex, cerebellum, and brain stem, immediately frozen on dry ice, and then stored at −80 °C till further processing for biochemical analysis.
# The hippocampus from left cerebral hemisphere stored at −80 °C from each mouse was homogenized in a Teflon-glass homogenizer to obtain 10% (w/v) homogenate. […] The blots were developed and quantified as described before. For quantification of different protein levels, each immunoreactive band was normalized to its corresponding GAPDH band.
# Ts65Dn mice = experiment: General examination and monthly body weight, adult mice and mothers; type: in vivo
# Excerpt: We treated 2–3-month-old pregnant Ts65Dn (Dn) and wild-type (WT) mothers from day 8 (E8) of pregnancy till the weaning of the pups on PND21 with compound P021 (P) in the feed, or as control with vehicle (V) feed (Fig. 1). The offsprings also had access to the P021 or vehicle diet as per mother’s group till PND21. The offsprings from Ts65Dn mothers were genotyped to identify Ts65Dn and WT pups. There were 6 study groups as follows: WT offsprings of WT mothers on vehicle diet (WT-V-WT), WT offsprings of WT mothers on P021 diet (WT-P-WT), WT offsprings of Ts65Dn mothers on vehicle diet (Dn-V-WT), WT offsprings of Ts65Dn mothers on P021 diet (Dn-P-WT), Ts65Dn offsprings of Ts65Dn mothers on vehicle diet (Dn-V-Dn), and Ts65Dn offsprings of Ts65Dn mothers on P021 diet (Dn-P-Dn). In the first phase of the study (Fig. 1b), the newborn pups were evaluated for neurobehavioral development starting on PND1 and carried out until PND21 (or until the appearance of developmental milestone/reflex). After completion of behavioral testing, the 3-week-old mice were sacrificed and brain tissue was collected. The neurobehavioral development component of the study was performed on WT-V-WT (n = 11), WT-P-WT (n = 10), Dn-V-WT (n = 10), Dn-P-WT (n = 9), Dn-V-Dn (n = 11), and Dn-P-Dn (n = 12) mice. In the second phase of the study (Fig. 1c), after prenatal to early postnatal treatment, the offsprings were allowed to grow till 5 months of age, and then general behavioral evaluation and cognitive testing were performed. After weaning, the offsprings received regular mouse chow. After completion of behavioral testing, ~7-month-old animals were sacrificed and brain tissue was collected for biochemical analyses. This longitudinal component of the study was carried out on WT-V-WT (n = 10), WT-P-WT (n = 12), Dn-V-WT (n = 12), Dn-P-WT (n = 11), Dn-V-Dn (n = 13), and Dn-P-Dn (n = 12) mice.
# For both the neurobehavioral development in mouse pups and the longitudinal adult mice studies, the physical state and condition of the animals (both mothers and offsprings) were carefully examined throughout the respective study duration. Body weight of mouse pups was recorded daily from PND1 to PND21. Body weight of adult mice was evaluated monthly. Adult mice were not subjected to any behavioral testing till they were ~5 months of age.
# [2] = done at EVER NeuroPharma GmbH, cited from earlier work
# Description: The studies regarding the plasma stability and stability in gastric and intestinal juices of P021 were done at EVER NeuroPharma GmbH, Unterach, Austria[67]. Briefly, the compound P021 was found stable both in artificial gastric juice (>90%) and in artificial intestinal juice (>95%) as analyzed up to 30 min and 2 hours, respectively.
# [3] = adult C57Bl/6 mice, commercial service APREDICA; cited from earlier work
# 3xTg-AD mice = details: concluded from hippocampal pSTAT3 decrease after oral P021 in diet; cited from earlier work
# [4] = cited from earlier work
# Excerpt: The compound P021 exerts a neurogenic and neurotrophic effect by inhibiting leukemia inhibitory factor (LIF) signaling pathway and enhancing brain derived neurotrophic factor (BDNF) expression by increasing its transcription.
# [5] = administration in clinical trials, humans; cited from earlier work
# Excerpt: Overall, we observed a significant group effect in body weight [Fig. 7a; 2-way ANOVA, F(5,410) = 14.28, p < 0.0001] and its change with age [F(4,410) = 100.25, p < 0.0001], however, group × age interaction was not significant [F(20,410) = 0.10, p = 1.0]. Bonferroni’s p ...
Molecule,placental/lactational delivery to offspring brain [1],general behavioral profile of the adult mice (Ts65Dn mice; adult offspring treated E8-PND21),"body weight, adult Ts65Dn mice (Ts65Dn mice; monthly evaluation, Dn-V-Dn vs. Dn-P-Dn, p > 0.05, treated E8-PND21)","body weight, adult WT mice (Ts65Dn mice; monthly evaluation, WT-V-WT vs. WT-P-WT and Dn-V-WT vs. Dn-P-WT, p > 0.05)","general physical condition of treated mothers (Ts65Dn mice; pregnant mothers on P021 diet, evaluated up to 2-3 months after weaning the pups)",stable in artificial gastric juice ([2]; analyzed up to 30 min) [%],stable in artificial intestinal juice ([2]; analyzed up to 2 hours) [%],BBB permeability [3],oral bioavailability (3xTg-AD mice),water solubility [4],adverse effects in clinical trials [5]
CC(=O)N[C@@H](CC(=O)O)C(=O)NCC(=O)NCC(=O)N[C@@H](CC(C)C)C(=O)NC12CC3CC(C1)CC(C(N)=O)(C3)C2 [Peptide P021] (Ac-DGGL-X1),delivered across placental barrier during pregnancy and via breast milk during lactation,did not affect the general behavioral profile,did not induce any significant changes in body weight,did not produce any alterations in body weight,did not show any treatment-induced alteration in their general physical condition,> 90,> 95,BBB-permeable,orally bioavailable,water-soluble,
"full-length human recombinant CNTF protein: full-length human recombinant ciliary neurotrophic factor protein given in clinical trials (protein, UniProt P26441 1-200, looked up, full-length) MAFTEHSPLTPHRRDLCSRSIWLARKIRSDLTALTESYVKHQGLNKNINLDSADGMPVASTDQWSELTEAERLQENLQAYRTFHVLLARLLEDQQVHFTPTEGDFHQAIHTLLLQVAAFAYQIEELMILLEYKIPRNEADGMPINVGDGGLFEKKLWGLKVLQELSQWTVRSIHDLRFISSHQTGIPARGSHYIANNKKM",,,,,,,,,,,"anorexia, skeletal muscle loss, hyperalgesia, severe cramps, and muscle pain"

# Source: PMC5377379, “Early neurotrophic pharmacotherapy rescues developmental delay and Alzheimer’s-like memory deficits in the Ts65Dn mouse model of Down syndrome” (Scientific Reports, 2017)
